Test results reported in patent US6395760B1, “Pesticidal 1-arylpyrazoles” (Rhone-Poulenc Inc., priority 1997, dated 2002).

Legend:
Design in all cases: key: ‘X’ means highly active; ‘+’ means moderately active; ‘−’ means low activity
Aphis gossypii = test: Soil drench test (systemic activity), aphids on cotton plants; format: in vivo; settings: 10.0 ppm soil concentration by weight, aphid counts at 5 DAT vs untreated control
Description: (§1) The Soil Drench Test (Systemic Activity) Cotton and sorghum plants were established in pots. One day prior to treatment, each pot was infested with about 25 aphids of a mixed population. Cotton plants were infested with aphids and sorghum plants were infested with the greenbug. The selected compound of formula (I) was applied to the soil surface in a dilution that delivered the equivalent of 10.0 ppm soil concentration by weight. Aphid counts were obtained at 5 DAT (=days after treatment). The number of aphids on the treated plants was compared to the number of those on the untreated control plants.

Schizaphis graminum = test: Soil drench test (systemic activity), greenbug on sorghum plants; format: in vivo; settings: 10.0 ppm soil concentration by weight, counts at 5 DAT vs untreated control
Description: as §1

Musca domestica = test: Housefly bait/contact test; format: in vivo; settings: 50 ppm in sugar water bait solution, adult houseflies, mortality after 24 hours
Description: The Housefly Bait/Contact Test About 25 four to six-day-old adult houseflies were anesthetized and placed in a cage with a sugar water bait solution containing the compound. The concentration of the selected compound of formula (I) in the bait solution was 50 ppm.

A. gossypii = test: Foliar application (contact test) with aphids; format: in vivo, Aphis gossypii; settings: 100 ppm formulation sprayed to runoff on aphid-infested cotton plants, dead aphids counted three days after treatment
Description: Foliar Application (Contact Test) with Aphids Aphid-infested cotton plants were placed on a revolving turntable, and sprayed to runoff with a 100 ppm formulation of the selected compound of formula (I). The treated, A. gossypii-infested plants were held for three days after treatment, after which the dead aphids were counted.

CSc1c(C2(C)OCCS2)nn(-c2c(Cl)cc(C(F)(F)F)cc2Cl)c1N (stereo not shown) [Compound 24]
Systemic activity on aphids (Aphis gossypii): X | Systemic activity on greenbugs (Schizaphis graminum): X

C[S+]([O-])c1c(C2(C)NCCS2)nn(-c2c(Cl)cc(C(F)(F)F)cc2Cl)c1N (stereo not shown) [Compound 15, 5-amino-1-[2,6-dichloro-4-(trifluoromethyl)phenyl]-3-(2-methylthiazolidine-2-yl)-4-methylsulfinyl-1H-pyrazole]
Systemic activity on aphids (Aphis gossypii): X | Systemic activity on greenbugs (Schizaphis graminum): X | Activity on house flies by contact (Musca domestica): X | Foliar activity on aphids (A. gossypii): −

CNc1c([S+](C)[O-])c(C2(C)OCCO2)nn1-c1c(Cl)cc(C(F)(F)F)cc1Cl (racemic) [Compound 39]
Systemic activity on aphids (Aphis gossypii): + | Systemic activity on greenbugs (Schizaphis graminum): X | Activity on house flies by contact (Musca domestica): −

CNc1c(S(C)(=O)=O)c(C2(C)OCCO2)nn1-c1c(Cl)cc(C(F)(F)F)cc1Cl [Compound 35]
Systemic activity on aphids (Aphis gossypii): X | Systemic activity on greenbugs (Schizaphis graminum): X | Activity on house flies by contact (Musca domestica): X | Foliar activity on aphids (A. gossypii): X

CNc1c(SC)c(C2(C)OCCO2)nn1-c1c(Cl)cc(C(F)(F)F)cc1Cl [Compound 38]
Systemic activity on aphids (Aphis gossypii): X | Systemic activity on greenbugs (Schizaphis graminum): X | Activity on house flies by contact (Musca domestica): X

CSCC1COC(C)(c2nn(-c3c(Cl)cc(C(F)(F)F)cc3Cl)c(N)c2SC)O1 (stereo not shown) [Compound 27]
Systemic activity on aphids (Aphis gossypii): X | Systemic activity on greenbugs (Schizaphis graminum): + | Activity on house flies by contact (Musca domestica): X | Foliar activity on aphids (A. gossypii): −

CC1(c2nn(-c3c(Cl)cc(C(F)(F)F)cc3Cl)c(N)c2S(C)(=O)=O)OCC(CO)O1 (stereo not shown) [Compound 7]
Systemic activity on aphids (Aphis gossypii): X | Systemic activity on greenbugs (Schizaphis graminum): X | Activity on house flies by contact (Musca domestica): + | Foliar activity on aphids (A. gossypii): X

CC1COC(C)(c2nn(-c3c(Cl)cc(C(F)(F)F)cc3Cl)c(N)c2S(C)(=O)=O)O1 (stereo not shown) [Compound 8]
Systemic activity on aphids (Aphis gossypii): X | Systemic activity on greenbugs (Schizaphis graminum): X | Activity on house flies by contact (Musca domestica): X | Foliar activity on aphids (A. gossypii): X

C[S+]([O-])c1c(C2(C)OCCO2)nn(-c2c(Cl)cc(C(F)(F)F)cc2Cl)c1N (stereo not shown) [Compound 10, 5-amino-1-[2,6-dichloro-4-(trifluoromethyl)phenyl]-3-(2-methyl-1,3-dioxolane-2-yl)-4-methylsulfinyl-1H-pyrazole]
Systemic activity on aphids (Aphis gossypii): X | Systemic activity on greenbugs (Schizaphis graminum): X | Activity on house flies by contact (Musca domestica): X | Foliar activity on aphids (A. gossypii): X

CCNc1c([S+](C)[O-])c(C2(C)OCCO2)nn1-c1c(Cl)cc(C(F)(F)F)cc1Cl (stereo not shown) [Compound 37]
Systemic activity on aphids (Aphis gossypii): X | Activity on house flies by contact (Musca domestica): X | Foliar activity on aphids (A. gossypii): X

COC(C)(OC)c1nn(-c2c(Cl)cc(C(F)(F)F)cc2Cl)c(N)c1SC [Compound 1, 5-amino-1-[2,6-dichloro-4-(trifluoromethyl)phenyl]-3-[(1,1-dimethoxy)ethyl]-4-methylthio-1H-pyrazole]
Systemic activity on aphids (Aphis gossypii): X | Systemic activity on greenbugs (Schizaphis graminum): X | Activity on house flies by contact (Musca domestica): X | Foliar activity on aphids (A. gossypii): +

C[S+]([O-])c1c(C2(C)OCC(CO)O2)nn(-c2c(Cl)cc(C(F)(F)F)cc2Cl)c1N (stereo not shown) [Compound 26]
Systemic activity on aphids (Aphis gossypii): − | Systemic activity on greenbugs (Schizaphis graminum): + | Activity on house flies by contact (Musca domestica): X | Foliar activity on aphids (A. gossypii): −

CSc1c(C2(C)SCCS2)nn(-c2c(Cl)cc(C(F)(F)F)cc2Cl)c1N [Compound 16, 5-amino-1-[2,6-dichloro-4-(trifluoromethyl)phenyl]-3-(2-methyl-1,3-dithiolane-2-yl)-4-methylthio-1H-pyrazole]
Systemic activity on aphids (Aphis gossypii): − | Systemic activity on greenbugs (Schizaphis graminum): X | Activity on house flies by contact (Musca domestica): X | Foliar activity on aphids (A. gossypii): +

CC1COC(C)(c2nn(-c3c(Cl)cc(C(F)(F)F)cc3Cl)c(N)c2[S+](C)[O-])O1 (stereo not shown) [Compound 11]
Systemic activity on aphids (Aphis gossypii): X | Systemic activity on greenbugs (Schizaphis graminum): X | Activity on house flies by contact (Musca domestica): X | Foliar activity on aphids (A. gossypii): X

C[S+]([O-])c1c(C2(C)SCCS2)nn(-c2c(Cl)cc(C(F)(F)F)cc2Cl)c1N (stereo not shown) [Compound 18]
Systemic activity on aphids (Aphis gossypii): − | Systemic activity on greenbugs (Schizaphis graminum): + | Activity on house flies by contact (Musca domestica): X | Foliar activity on aphids (A. gossypii): X

CSc1c(C2(C)OCCCO2)nn(-c2c(Cl)cc(C(F)(F)F)cc2Cl)c1N [Compound 12]
Systemic activity on aphids (Aphis gossypii): X | Systemic activity on greenbugs (Schizaphis graminum): X | Activity on house flies by contact (Musca domestica): X | Foliar activity on aphids (A. gossypii): X

COC(C)(OC)c1nn(-c2c(Cl)cc(C(F)(F)F)cc2Cl)c(N)c1[S+](C)[O-] (stereo not shown) [Compound 2]
Systemic activity on aphids (Aphis gossypii): + | Systemic activity on greenbugs (Schizaphis graminum): X | Activity on house flies by contact (Musca domestica): X | Foliar activity on aphids (A. gossypii): X

CC1(c2nn(-c3c(Cl)cc(C(F)(F)F)cc3Cl)c(N)c2S(C)(=O)=O)SCCS1 [Compound 17]
Systemic activity on aphids (Aphis gossypii): X | Systemic activity on greenbugs (Schizaphis graminum): X | Activity on house flies by contact (Musca domestica): X | Foliar activity on aphids (A. gossypii): +

CSc1c(C2(C)OCC(CO)(CO)CO2)nn(-c2c(Cl)cc(C(F)(F)F)cc2Cl)c1N [Compound 14]
Systemic activity on aphids (Aphis gossypii): − | Activity on house flies by contact (Musca domestica): − | Foliar activity on aphids (A. gossypii): −

CC1(c2nn(-c3c(Cl)cc(C(F)(F)F)cc3Cl)c(N)c2S(C)(=O)=O)OCCS1 (stereo not shown) [Compound 23, 5-amino-1-[2,6-dichloro-4-(trifluoromethyl)phenyl]-3-(2-methyl-1,3-oxathiolane-2-yl)-4-methylsulfonyl-1H-pyrazole]
Systemic activity on aphids (Aphis gossypii): X | Activity on house flies by contact (Musca domestica): −

CSc1c(C2(C)OCC(C[S+](C)[O-])O2)nn(-c2c(Cl)cc(C(F)(F)F)cc2Cl)c1N (stereo not shown) [Compound 28]
Systemic activity on aphids (Aphis gossypii): X | Systemic activity on greenbugs (Schizaphis graminum): − | Activity on house flies by contact (Musca domestica): X | Foliar activity on aphids (A. gossypii): X

CC1(c2nn(-c3c(Cl)cc(C(F)(F)F)cc3Cl)c(N)c2S(C)(=O)=O)OCCO1 [Compound 5]
Systemic activity on aphids (Aphis gossypii): X | Systemic activity on greenbugs (Schizaphis graminum): X | Activity on house flies by contact (Musca domestica): X | Foliar activity on aphids (A. gossypii): X

CSc1c(C2(C)OCCO2)nn(-c2c(Cl)cc(C(F)(F)F)cc2Cl)c1N [Compound 3]
Systemic activity on aphids (Aphis gossypii): X | Systemic activity on greenbugs (Schizaphis graminum): X | Activity on house flies by contact (Musca domestica): X | Foliar activity on aphids (A. gossypii): X

CC1(c2nn(-c3c(Cl)cc(C(F)(F)F)cc3Cl)c(N)c2S(C)(=O)=O)[S+]([O-])CC[S+]1[O-] (stereo not shown) [Compound 22]
Systemic activity on aphids (Aphis gossypii): X | Systemic activity on greenbugs (Schizaphis graminum): + | Activity on house flies by contact (Musca domestica): − | Foliar activity on aphids (A. gossypii): −

CC1(c2nn(-c3c(Cl)cc(C(F)(F)F)cc3Cl)c(N)c2S(C)(=O)=O)S(=O)(=O)CCS1(=O)=O [Compound 25, 5-amino-1-[2,6-dichloro-4-(trifluoromethyl)phenyl]-3-(2-methyl-1,1,3,3-tetraoxo-1,3-dithiolane-2-yl)-4-methylsulfonyl-1H-pyrazole]
Systemic activity on aphids (Aphis gossypii): − | Activity on house flies by contact (Musca domestica): −

C[S+]([O-])CC1COC(C)(c2nn(-c3c(Cl)cc(C(F)(F)F)cc3Cl)c(N)c2S(C)(=O)=O)O1 (stereo not shown) [Compound 31]
Systemic activity on aphids (Aphis gossypii): X | Activity on house flies by contact (Musca domestica): + | Foliar activity on aphids (A. gossypii): +

CSCC1COC(C)(c2nn(-c3c(Cl)cc(C(F)(F)F)cc3Cl)c(N)c2S(C)(=O)=O)O1 (stereo not shown) [Compound 30]
Systemic activity on aphids (Aphis gossypii): X | Activity on house flies by contact (Musca domestica): −

CCNc1c(SC)c(C2(C)OCCO2)nn1-c1c(Cl)cc(C(F)(F)F)cc1Cl [Compound 36]
Systemic activity on aphids (Aphis gossypii): X | Activity on house flies by contact (Musca domestica): X | Foliar activity on aphids (A. gossypii): +

CCNc1c(S(C)(=O)=O)c(C2(C)OCCO2)nn1-c1c(Cl)cc(C(F)(F)F)cc1Cl [Compound 34]
Systemic activity on aphids (Aphis gossypii): X | Systemic activity on greenbugs (Schizaphis graminum): X | Activity on house flies by contact (Musca domestica): X | Foliar activity on aphids (A. gossypii): X

CSc1c(C2(C)SCC[S+]2[O-])nn(-c2c(Cl)cc(C(F)(F)F)cc2Cl)c1N (stereo not shown) [Compound 19]
Systemic activity on aphids (Aphis gossypii): − | Systemic activity on greenbugs (Schizaphis graminum): + | Activity on house flies by contact (Musca domestica): X | Foliar activity on aphids (A. gossypii): X

CC1(c2nn(-c3c(Cl)cc(C(F)(F)F)cc3Cl)c(N)c2S(C)(=O)=O)OCCCO1 [Compound 13]
Systemic activity on greenbugs (Schizaphis graminum): X | Activity on house flies by contact (Musca domestica): X | Foliar activity on aphids (A. gossypii): X

CC1(c2nn(-c3c(Cl)cc(C(F)(F)F)cc3Cl)c(N)c2S(C)(=O)=O)SCC[S+]1[O-] (stereo not shown) [Compound 21]
Systemic activity on aphids (Aphis gossypii): − | Systemic activity on greenbugs (Schizaphis graminum): − | Activity on house flies by contact (Musca domestica): X | Foliar activity on aphids (A. gossypii): −

C[S+]([O-])c1c(C2(C)SCC[S+]2[O-])nn(-c2c(Cl)cc(C(F)(F)F)cc2Cl)c1N (stereo not shown) [Compound 20]
Systemic activity on aphids (Aphis gossypii): − | Systemic activity on greenbugs (Schizaphis graminum): − | Activity on house flies by contact (Musca domestica): X | Foliar activity on aphids (A. gossypii): −

CSc1c(C2(C)OCC(CO)O2)nn(-c2c(Cl)cc(C(F)(F)F)cc2Cl)c1N (stereo not shown) [Compound 6]
Systemic activity on aphids (Aphis gossypii): + | Systemic activity on greenbugs (Schizaphis graminum): X | Activity on house flies by contact (Musca domestica): − | Foliar activity on aphids (A. gossypii): −
